# Patent US11377425B1, “Small molecule modulators of IL-17” (LEO Pharma A/S, priority 2018, dated 2022)
# Molecular target: T1, human IL-17AA (Homo sapiens, UniProt Q16552)
# T1 construct: host or cells: HEK (human embryonic kidney) cells
# T1 sequence (Q16552 24-155): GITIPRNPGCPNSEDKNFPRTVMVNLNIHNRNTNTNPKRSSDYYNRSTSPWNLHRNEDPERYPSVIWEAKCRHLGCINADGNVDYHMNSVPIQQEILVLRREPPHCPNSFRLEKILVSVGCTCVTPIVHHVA
# Test: IL-8 release assay in human epithelial keratinocytes adult (HEKa)
# Assay type: cell-based
# Settings: HEKa cells, 3 ng/mL HEK-human IL-17AA + 10 ng/mL human TNFalpha; read-out: Rel EC50 IL-8 release assay
# Summary of the method: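 Adult human epidermal keratinocytes stimulated 68-72 h at 37 °C with 3 ng/mL HEK-derived human IL-17AA plus 10 ng/mL TNF-alpha (final) in the presence of compound; TNF-alpha alone defines 100% inhibition. Secreted IL-8 measured by HTRF as percent of controls; relative IC50/Emax from four-parameter fit (r^2>0.9), cytotoxicity by PrestoBlue.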
row,SMILES,EC50 [nM]
1,"Cn1cncc1-c1ccc(NC(=O)C(NC(=O)c2ccnn2C)C(c2cccc(F)c2)c2cccc(F)c2)cc1 (single isomer, unassigned) [Example 374A, N-(1,1-Bis(3-Fluorophenyl)-3-((4-(1-methyl-1H-imidazol-5-yl)phenyl)amino)-3-oxopropan-2-yl)-1-methyl-1H-pyrazole-5-carboxamide]",> 1000
2,"Cn1cncc1-c1ccc(NC(=O)C(NC(=O)c2ccnn2C)C(c2cccc(F)c2)c2cccc(F)c2)cc1 (single isomer, unassigned) [Example 374B, N-(1,1-Bis(3-Fluorophenyl)-3-((4-(1-methyl-1H-imidazol-5-yl)phenyl)amino)-3-oxopropan-2-yl)-1-methyl-1H-pyrazole-5-carboxamide]",> 1000
3,"CC(C)n1nccc1C(=O)NC(C(=O)Nc1ccc(-c2c(C3CC3)n[nH]c2C2CC2)cc1)C(C1CC1)C1CC1 (single isomer, unassigned) [Example 384, N-[1-(dicyclopropylmethyl)-2-[4-(3,5-dicyclopropyl-1H-pyrazol-4-yl)anilino]-2-oxo-ethyl]-2-isopropyl-pyrazole-3-carboxamide]",100 to 1000
4,"CC(C)n1nccc1C(=O)NC(C(=O)Nc1ccc(-c2c(C3CC3)n[nH]c2C2CC2)cc1)C(C1CC1)C1CC1 (single isomer, unassigned) [Example 385, N-[1-(dicyclopropylmethyl)-2-[4-(3,5-dicyclopropyl-1H-pyrazol-4-yl)anilino]-2-oxo-ethyl]-2-isopropyl-pyrazole-3-carboxamide]",< 100
5,"Cc1n[nH]c(C)c1-c1ccc(NC(=O)[C@@H](NC(=O)N2CCCCC2CCCO)C2CCCCC2)cc1 (single isomer, unassigned) [Example 460]",100 to 1000
6,"Cc1n[nH]c(C)c1-c1ccc(NC(=O)[C@@H](NC(=O)N2CCCCC2CCCO)C2CCCCC2)cc1 (single isomer, unassigned) [Example 461]",> 1000
7,"Cc1n[nH]c(C)c1-c1ccc(NC(=O)[C@@H](NC(=O)N2CCCC2C(C)(C)O)C2CCCCC2)cc1 (single isomer, unassigned) [Example 464]",> 1000
8,"Cc1n[nH]c(C)c1-c1ccc(NC(=O)[C@@H](NC(=O)N2CCCC2C(C)(C)O)C2CCCCC2)cc1 (single isomer, unassigned) [Example 465]",> 1000
9,"Cc1n[nH]c(C)c1-c1ccc(NC(=O)[C@@H](NC(=O)c2ccnn2C)C2CCCCC2)cc1 [Example 1, N-[(1S)-1-cyclohexyl-2-[4-(3,5-dimethyl-1H-pyrazol-4-yl)anilino]-2-oxo-ethyl]-2-methyl-pyrazole-3-carboxamide]",100 to 1000
10,"Cc1n[nH]c(C)c1-c1ccc(NC(=O)[C@@H](NC(=O)c2ccnn2C)C(c2ccccc2)c2ccccc2)cc1 [Example 2, N-[(1S)-1-benzhydryl-2-[4-(3,5-dimethyl-1H-pyrazol-4-yl)anilino]-2-oxo-ethyl]-2-methyl-pyrazole-3-carboxamide]",100 to 1000

# Further lines, results first:
row,EC50 [nM],SMILES
1,> 1000,"Cc1n[nH]c(C)c1-c1ccc(NC(=O)[C@@H](NC(=O)N2CCCC2CCO)C2CCCCC2)cc1 (single isomer, unassigned) [Example 466]"
2,> 1000,"Cc1n[nH]c(C)c1-c1ccc(NC(=O)[C@@H](NC(=O)N2CCCC2CCO)C2CCCCC2)cc1 (single isomer, unassigned) [Example 467]"
3,> 1000,"Cc1n[nH]c(C)c1-c1ccc(NC(=O)[C@@H](NC(=O)N2CCCCC2CCO)C2CCCCC2)cc1 (single isomer, unassigned) [Example 470]"
4,> 1000,"Cc1n[nH]c(C)c1-c1ccc(NC(=O)[C@@H](NC(=O)N2CCCCC2CCO)C2CCCCC2)cc1 (single isomer, unassigned) [Example 471]"
5,> 1000,"Cc1n[nH]c(C)c1-c1ccc(NC(=O)[C@@H](NC(=O)N2CCCC2CO)C2CCCCC2)cc1 (single isomer, unassigned) [Example 473]"
6,> 1000,"Cc1n[nH]c(C)c1-c1ccc(NC(=O)[C@@H](NC(=O)N2CCCC2CO)C2CCCCC2)cc1 (single isomer, unassigned) [Example 474]"
